US20130052636A1, “RAPID DETECTION OF METABOLIC ACTIVITY” (SPECTRAL PLATFORMS, INC., priority 2011, published 2013)

Tests used:
Type in all cases: cell-based
[1] = system: methicillin resistant S. aureus (MRSA); test: Raman marker peak height versus time in serum with MRSA (FIG. 6); details: representative traces 32 and 34, FIG. 6
Source text: As described above, if the iron sequestration process is monitored via Raman spectroscopy, then the test involves the collection of a series of Raman spectra over time. A hypothetical depiction of this collection for a non-iron marker is depicted in FIG. 5. The individual Raman spectra comprise one or more peaks such as […], and 23 that, in the case of iron sequestration, are ascribed either to Fe-Tr (21 and 22) or to the apo-Tr and/or serum lipoproteins (23). The peak heights from one of the Fe-Tr peaks (for instance, 22) are monitored over time, as depicted in FIG. 5. If viable pathogens are present, and are sequestering iron to afford Fe-Tr, then the iron-transferrin peaks decrease over time, as depicted by traces 33 and 34 in FIG. 6. On the other hand, if viable pathogens are not present, or if viable pathogens are present in the assay together with an effective antimicrobial agent, then the peak heights are nearly invariant with time.
With reference to FIGS. 5 and 6, if the lycopene consumption is monitored via Raman spectroscopy as an indicator of metabolic activity, then the test involves the collection of a series of Raman spectra over time. A representative depiction of this collection is depicted in FIG. 5. […]

HL60 human cells = test: Toxin detection: lycopene Raman peak in human serum, trypticase soy broth and HL60 cells; details: 4 μM, FIG. 24, 25
Source text: FIG. 24 depicts the results of one toxin detection experiment. A control sample comprising human serum (centrifuged from the blood collected from a healthy volunteer) was combined with trypticase soy broth and HL60 human cells. […] FIG. 25 plots the normalized intensity for the 1516 cm^−1 peak as a function of time for the rhizoxin containing sample.

S. aureus = test: Lycopene Raman peak (1516 cm^-1) slope versus time in inoculated serum, MIC estimate; details: S. aureus 10^5 cfu/mL; vancomycin 1, 5 and 20 μg/mL; FIG. 17
Protocol: FIGS. 17 & 18 illustrate the method by which a marker can be used to estimate the minimum inhibitory concentration MIC. FIG. 17 illustrates the Raman peak height at 1516 cm^−1 (which has been ascribed to lycopene) as a function of time for several samples. The samples include a serum sample that has been artificially inoculated with S. aureus to a concentration of 10^5 cfu/mL, and additional samples that also contain various concentrations of vancomycin (1, 5 and 20 μg/mL) as indicated in the legend.
FIG. 18 plots the slope of all the traces in FIG. 17, as a function of added vancomycin concentration. The dashed horizontal line corresponds to the slope of the sample without any added vancomycin, and the 3 data points correspond to vancomycin concentrations of 1, 5 and 20 μg/mL. The solid black line is a logarithmic fit of the 3 data points, and the MIC corresponds to the point at which the solid black line intersects the dashed line.

| SMILES | effectiveness of dose by peak height versus time trace [1] | lycopene peak height (1516 cm^-1) over time (HL60 human cells) | slope of lycopene 1516 cm^-1 peak intensity versus time (S. aureus) |
| --- | --- | --- | --- |
| CC1(C)S[C@@H]2[C@H](NC(=O)[C@H](N)c3ccccc3)C(=O)N2[C@H]1C(=O)O [ampicillin] | ineffective dose | – | – |
| CO[C@@H](/C(C)=C/C=C/C(C)=C/c1coc(C)n1)[C@@H](C)[C@@H]1C[C@H](O)[C@@]2(C)O[C@@H]2/C=C/[C@@H](C)[C@H]2C[C@H](CC(=O)O2)C[C@@H]2O[C@H]2C(=O)O1 [rhizoxin] | – | increases significantly at first, followed by a steady decline | – |
| CN[C@H](CC(C)C)C(=O)N[C@H]1C(=O)N[C@@H](CC(N)=O)C(=O)N[C@H]2C(=O)N[C@H]3C(=O)N[C@H](C(=O)N[C@H](C(=O)O)c4cc(O)cc(O)c4-c4cc3ccc4O)[C@H](O)c3ccc(c(Cl)c3)Oc3cc2cc(c3O[C@@H]2O[C@H](CO)[C@@H](O)[C@H](O)[C@H]2O[C@H]2C[C@](C)(N)[C@H](O)[C@H](C)O2)Oc2ccc(cc2Cl)[C@H]1O [vancomycin] | effective dose | – | slope progressively decreases as more vancomycin is added |
